Legend:
F98 glioma = assay: Efficacy of local TMZ, local BCNU and XRT, intracranial F98 glioma (resistant to alkylating agents); assay type: in vivo, F344 rats; settings: without XRT
9L gliosarcoma = assay: Efficacy of local TMZ, local BCNU and XRT, intracranial 9L gliosarcoma (second experiment); assay type: in vivo, F344 rats; settings: without XRT
From the text: TMZ, provided by the National Institute of Health/National Cancer Institute, (Bethesda, Md.), was incorporated into a polyanhydride CPP:SA 20:80 polymer at concentrations of 50% (w/w) by methods as described by Tamargo, et al., Cancer Res. 53(2):329-333 (1993). BCNU was purchased from the Johns Hopkins Hospital pharmacy (Bristol Meyers; Princeton, N.J.) and polymers were made at concentrations of 3.8% (w/w) in a similar fashion. The polymers were then pressed into discs weighing approximately 10 mg. Blank polymers (100% CPP:SA) were made in an analogous manner. In vitro release kinetics, biodistribution studies, and studies to determine maximally tolerated dose of BCNU and TMZ polymers as described by Brem, et al., Cancer Chemother. Pharmacol. 60(5):643-650 (2007); Tamargo, et al., Cancer Res. 53(2):329-333 (1993); and Grossman, et al., J. Neurosurg. 76(4):640-647 (1992). Polymers were stored at −20° C. until use.
The 9L gliosarcoma was obtained from Dr. M. Barker at the University of California-San Francisco Brain Tumor Research Center (San Francisco, Calif.). […]
To determine the efficacy of the combination of locally delivered TMZ with locally delivered BCNU and XRT, tumor-bearing rats were randomized into groups of sixteen for treatment on post-operative Day 5. […] Any animals appearing moribund were sacrificed and date of death recorded. […]

Question: With Cn1nnc2c(C(N)=O)ncn2c1=O [50 mg/kg oral TMZ, temozolomide] as the compound, how does the “Long-term survivors (%)” value (F98 glioma; alive at Day 120) read?
Answer: 0%

Question: What about the “Median survival (days)” value (F98 glioma; range in brackets) of the same compound?
Answer: 15 (13-18) days

Question: What about the “Long-term survivors (%)” value (9L gliosarcoma; alive at Day 120) of the same compound?
Answer: 0%

Question: And the “Median survival (days)” value (9L gliosarcoma; range in brackets)?
Answer: 24 (14-33) days

— US8895597B2, “Combination of local temozolomide with local BCNU” (priority 2010, dated 2014)
